Consider seven compounds from US8048881B2, “Pyrimidine derivatives and their use as P2Y12 receptor antagonists” (Actelion Pharmaceuticals Ltd., priority 2005, dated 2011).

Molecules are shown by their SMILES.

The target in the test is T1, human P2Y12 receptor (Homo sapiens, UniProt Q9H244).
T1 construct: expressed in transfected cells; host or cells: Chinese Hamster Ovary (CHO) cells
As to the kind of experiment: P2Y12 receptor binding assay. The note with it: CHO cells with recombinant expression of the human P2Y12 receptor; tritium-labeled 2-methyl-S-ADP; incubation at room temperature for 2 hours. The procedure:
P2Y12 Receptor Binding Assay
Chinese Hamster Ovary (CHO) cells with recombinant expression of the human P2Y12 receptor were cultured in 24 well cell-culture plates. Cells were washed three times with binding buffer (50 mM Tris pH 7.4, 100 mM NaCl, 1 mM EDTA, 0.5% BSA). The cells were then incubated with 0.5 ml per well binding buffer containing tritium-labeled 2-methyl-thio-adenosine 5′-diphosphate (2-methyl-S-ADP) (between 100'000 and 300'000 dpm per well) and various concentrations of test compounds. After incubation at room temperature for 2 hours, cells were washed three times with binding buffer. Then, cells were solubilized by addition of 0.5 ml solubilization buffer (SDS, NaOH, EDTA). The content of each well was then transferred into beta-counter vials and 2.0 ml of Ultima Gold Scintillation liquid was added.

T1 sequence (Q9H244 whole entry): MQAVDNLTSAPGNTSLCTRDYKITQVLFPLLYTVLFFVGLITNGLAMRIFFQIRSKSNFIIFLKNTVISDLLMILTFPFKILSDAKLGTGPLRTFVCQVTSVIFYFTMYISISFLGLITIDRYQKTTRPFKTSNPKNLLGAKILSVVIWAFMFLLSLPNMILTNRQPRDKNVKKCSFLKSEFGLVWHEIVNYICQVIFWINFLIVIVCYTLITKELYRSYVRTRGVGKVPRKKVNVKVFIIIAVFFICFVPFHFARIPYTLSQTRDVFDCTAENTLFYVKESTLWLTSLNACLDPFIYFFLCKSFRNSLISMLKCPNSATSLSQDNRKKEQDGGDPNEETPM

As to `CCOC(=O)N1CCN(C(=O)[C@H](CCC(=O)O)NC(=O)c2cc(NCC(C)O)nc(-c3ccccc3)n2)CC1` (stereo partly drawn) [Example 231, 4-((S)-4-carboxy-2-{[6-(2-hydroxy-propylamino)-2-phenyl-pyrimidine-4-carbonyl]-amino}-butyryl)-piperazine-1-carboxylic acid ethyl ester], the IC50 came to 174 nM. Then `CCOC(=O)N1CCN(C(=O)[C@H](CCC(=O)O)NC(=O)c2cc(CN(C)Cc3ccccc3)nc(-c3ccccc3)n2)CC1` [Example 362, 4-[(S)-2-({6-[(benzyl-methyl-amino)-methyl]-2-phenyl-pyrimidine-4-carbonyl}-amino)-4-carboxy-butyryl]-piperazine-1-carboxylic acid ethyl ester], with 86 nM; and `CCOC(=O)N1CCN(C(=O)[C@H](CCC(=O)O)NC(=O)c2cc(-c3ccc[n+]([O-])c3)nc(-c3ccccc3)n2)CC1` [Example 418, 4-((S)-4-carboxy-2-{[6-(1-oxy-pyridin-3-yl)-2-phenyl-pyrimidine-4-carbonyl]-amino}-butyryl)-piperazine-1-carboxylic acid ethyl ester], with 129 nM; and `CCOCc1cc(C(=O)N[C@@H](CCC(=O)O)C(=O)N2CCN(C(=O)OCC)CC2)nc(-c2ccccc2)n1` [Example 430, 4-{(S)-4-carboxy-2-[(6-ethoxymethyl-2-phenyl-pyrimidine-4-carbonyl)-amino]-butyryl}-piperazine-1-carboxylic acid ethyl ester], with 188 nM.

As to `CCOC(=O)N1CCN(C(=O)[C@H](Cc2ccc(C(=O)O)cc2)NC(=O)c2cc(NC(C)C)nc(-c3ccccc3)n2)CC1` [Example 115, 4-{(S)-3-(4-carboxy-phenyl)-2-[(6-isopropylamino-2-phenyl-pyrimidine-4-carbonyl)-amino]-propionyl}-piperazine-1-carboxylic acid ethyl ester], the IC50 amounted to 390 nM. For the compound `CCOC(=O)N1CCN(C(=O)[C@H](CCC(=O)O)NC(=O)c2cc(/C=C/CCO)nc(-c3ccccc3)n2)CC1` [Example 421, 4-((S)-4-carboxy-2-{[6-((E)-4-hydroxy-but-1-enyl)-2-phenyl-pyrimidine-4-carbonyl]-amino}-butyryl)-piperazine-1-carboxylic acid ethyl ester], the IC50 is 75 nM. The value for `C#Cc1cc(C(=O)N[C@@H](CCC(=O)O)C(=O)N2CCN(C(=O)OCC)CC2)nc(-c2ccccc2)n1` [Example 258, 4-{(S)-4-carboxy-2-[(6-ethynyl-2-phenyl-pyrimidine-4-carbonyl)-amino]-butyryl}-piperazine-1-carboxylic acid ethyl ester] was 253 nM.

What is called IC50 is the midpoint of a concentration-inhibition curve.
